Oligonucleotides are given in HELM: sugar(base)linkage, 5' to 3'; d 2'-deoxyribose, r ribose, m 2'-O-methylribose, p phosphate. ss, as = sense and antisense strand
What follows are substances tested against Mmp7 (rat) (assay: reporter assay of Huesken 2005). Conditions: siRNA.
Further: test concentration or dose not given here.

In order of rising normalised inhibition (eCFP-eYFP dual reporter):
1. RNA1{r(G)p.r(A)p.r(A)p.r(G)p.r(U)p.r(G)p.r(A)p.r(C)p.r(C)p.r(G)p.r(C)p.r(A)p.r(C)p.r(U)p.r(U)p.r(C)p.r(A)p.r(G)p.r(U)p.d(T)p.d(T)}|RNA2{r(A)p.r(C)p.r(U)p.r(G)p.r(A)p.r(A)p.r(G)p.r(U)p.r(G)p.r(C)p.r(G)p.r(G)p.r(U)p.r(C)p.r(A)p.r(C)p.r(U)p.r(U)p.r(C)p.d(T)p.d(C)}$$$RNA1{StrandType:ss}|RNA2{StrandType:as}$  40.5%
2. RNA1{r(G)p.r(A)p.r(A)p.r(C)p.r(U)p.r(U)p.r(C)p.r(C)p.r(U)p.r(G)p.r(U)p.r(U)p.r(U)p.r(G)p.r(U)p.r(U)p.r(G)p.r(C)p.r(C)p.d(T)p.d(T)}|RNA2{r(G)p.r(G)p.r(C)p.r(A)p.r(A)p.r(C)p.r(A)p.r(A)p.r(A)p.r(C)p.r(A)p.r(G)p.r(G)p.r(A)p.r(A)p.r(G)p.r(U)p.r(U)p.r(C)p.d(A)p.d(C)}$$$RNA1{StrandType:ss}|RNA2{StrandType:as}$  53.6%
3. RNA1{r(G)p.r(A)p.r(A)p.r(A)p.r(C)p.r(A)p.r(C)p.r(U)p.r(C)p.r(U)p.r(A)p.r(G)p.r(G)p.r(C)p.r(C)p.r(A)p.r(U)p.r(G)p.r(C)p.d(T)p.d(T)}|RNA2{r(G)p.r(C)p.r(A)p.r(U)p.r(G)p.r(G)p.r(C)p.r(C)p.r(U)p.r(A)p.r(G)p.r(A)p.r(G)p.r(U)p.r(G)p.r(U)p.r(U)p.r(U)p.r(C)p.d(C)p.d(T)}$$$RNA1{StrandType:ss}|RNA2{StrandType:as}$  53.7%
4. RNA1{r(G)p.r(A)p.r(U)p.r(G)p.r(G)p.r(U)p.r(G)p.r(A)p.r(G)p.r(G)p.r(A)p.r(C)p.r(U)p.r(C)p.r(A)p.r(G)p.r(G)p.r(C)p.r(G)p.d(T)p.d(T)}|RNA2{r(C)p.r(G)p.r(C)p.r(C)p.r(U)p.r(G)p.r(A)p.r(G)p.r(U)p.r(C)p.r(C)p.r(U)p.r(C)p.r(A)p.r(C)p.r(C)p.r(A)p.r(U)p.r(C)p.d(C)p.d(G)}$$$RNA1{StrandType:ss}|RNA2{StrandType:as}$  61.8%
5. RNA1{r(C)p.r(U)p.r(C)p.r(U)p.r(C)p.r(U)p.r(G)p.r(G)p.r(G)p.r(U)p.r(C)p.r(U)p.r(G)p.r(G)p.r(G)p.r(U)p.r(C)p.r(A)p.r(C)p.d(T)p.d(T)}|RNA2{r(G)p.r(U)p.r(G)p.r(A)p.r(C)p.r(C)p.r(C)p.r(A)p.r(G)p.r(A)p.r(C)p.r(C)p.r(C)p.r(A)p.r(G)p.r(A)p.r(G)p.r(A)p.r(G)p.d(T)p.d(G)}$$$RNA1{StrandType:ss}|RNA2{StrandType:as}$  73.1%
6. RNA1{r(C)p.r(U)p.r(G)p.r(A)p.r(G)p.r(G)p.r(G)p.r(A)p.r(A)p.r(A)p.r(U)p.r(G)p.r(C)p.r(A)p.r(G)p.r(A)p.r(A)p.r(G)p.r(U)p.d(T)p.d(T)}|RNA2{r(A)p.r(C)p.r(U)p.r(U)p.r(C)p.r(U)p.r(G)p.r(C)p.r(A)p.r(U)p.r(U)p.r(U)p.r(C)p.r(C)p.r(C)p.r(U)p.r(C)p.r(A)p.r(G)p.d(T)p.d(T)}$$$RNA1{StrandType:ss}|RNA2{StrandType:as}$  83.4%
7. RNA1{r(C)p.r(U)p.r(U)p.r(C)p.r(C)p.r(C)p.r(A)p.r(U)p.r(U)p.r(U)p.r(G)p.r(A)p.r(U)p.r(G)p.r(G)p.r(G)p.r(C)p.r(C)p.r(A)p.d(T)p.d(T)}|RNA2{r(U)p.r(G)p.r(G)p.r(C)p.r(C)p.r(C)p.r(A)p.r(U)p.r(C)p.r(A)p.r(A)p.r(A)p.r(U)p.r(G)p.r(G)p.r(G)p.r(A)p.r(A)p.r(G)p.d(T)p.d(T)}$$$RNA1{StrandType:ss}|RNA2{StrandType:as}$  85%
8. RNA1{r(G)p.r(A)p.r(U)p.r(G)p.r(A)p.r(G)p.r(U)p.r(A)p.r(C)p.r(U)p.r(G)p.r(G)p.r(A)p.r(C)p.r(G)p.r(G)p.r(A)p.r(U)p.r(G)p.d(T)p.d(T)}|RNA2{r(C)p.r(A)p.r(U)p.r(C)p.r(C)p.r(G)p.r(U)p.r(C)p.r(C)p.r(A)p.r(G)p.r(U)p.r(A)p.r(C)p.r(U)p.r(C)p.r(A)p.r(U)p.r(C)p.d(C)p.d(T)}$$$RNA1{StrandType:ss}|RNA2{StrandType:as}$  87.4%
9. RNA1{r(C)p.r(U)p.r(G)p.r(G)p.r(G)p.r(U)p.r(C)p.r(U)p.r(G)p.r(G)p.r(G)p.r(U)p.r(C)p.r(A)p.r(C)p.r(U)p.r(C)p.r(U)p.r(U)p.d(T)p.d(T)}|RNA2{r(A)p.r(A)p.r(G)p.r(A)p.r(G)p.r(U)p.r(G)p.r(A)p.r(C)p.r(C)p.r(C)p.r(A)p.r(G)p.r(A)p.r(C)p.r(C)p.r(C)p.r(A)p.r(G)p.d(A)p.d(G)}$$$RNA1{StrandType:ss}|RNA2{StrandType:as}$  87.6%
10. RNA1{r(G)p.r(C)p.r(A)p.r(A)p.r(G)p.r(G)p.r(G)p.r(G)p.r(A)p.r(G)p.r(A)p.r(U)p.r(C)p.r(A)p.r(C)p.r(G)p.r(G)p.r(A)p.r(G)p.d(T)p.d(T)}|RNA2{r(C)p.r(U)p.r(C)p.r(C)p.r(G)p.r(U)p.r(G)p.r(A)p.r(U)p.r(C)p.r(U)p.r(C)p.r(C)p.r(C)p.r(C)p.r(U)p.r(U)p.r(G)p.r(C)p.d(G)p.d(A)}$$$RNA1{StrandType:ss}|RNA2{StrandType:as}$  90.5%
11. RNA1{r(G)p.r(A)p.r(C)p.r(U)p.r(U)p.r(C)p.r(A)p.r(G)p.r(U)p.r(C)p.r(U)p.r(U)p.r(A)p.r(C)p.r(A)p.r(A)p.r(A)p.r(G)p.r(G)p.d(T)p.d(T)}|RNA2{r(C)p.r(C)p.r(U)p.r(U)p.r(U)p.r(G)p.r(U)p.r(A)p.r(A)p.r(G)p.r(A)p.r(C)p.r(U)p.r(G)p.r(A)p.r(A)p.r(G)p.r(U)p.r(C)p.d(T)p.d(T)}$$$RNA1{StrandType:ss}|RNA2{StrandType:as}$  92.9%
12. RNA1{r(G)p.r(A)p.r(A)p.r(G)p.r(C)p.r(C)p.r(C)p.r(A)p.r(G)p.r(G)p.r(U)p.r(G)p.r(U)p.r(G)p.r(G)p.r(A)p.r(G)p.r(U)p.r(G)p.d(T)p.d(T)}|RNA2{r(C)p.r(A)p.r(C)p.r(U)p.r(C)p.r(C)p.r(A)p.r(C)p.r(A)p.r(C)p.r(C)p.r(U)p.r(G)p.r(G)p.r(G)p.r(C)p.r(U)p.r(U)p.r(C)p.d(T)p.d(G)}$$$RNA1{StrandType:ss}|RNA2{StrandType:as}$  94%
13. RNA1{r(G)p.r(C)p.r(A)p.r(G)p.r(A)p.r(A)p.r(U)p.r(U)p.r(C)p.r(U)p.r(C)p.r(A)p.r(C)p.r(U)p.r(A)p.r(A)p.r(U)p.r(G)p.r(C)p.d(T)p.d(T)}|RNA2{r(G)p.r(C)p.r(A)p.r(U)p.r(U)p.r(A)p.r(G)p.r(U)p.r(G)p.r(A)p.r(G)p.r(A)p.r(A)p.r(U)p.r(U)p.r(C)p.r(U)p.r(G)p.r(C)p.d(A)p.d(A)}$$$RNA1{StrandType:ss}|RNA2{StrandType:as}$  94.3%
14. RNA1{r(G)p.r(A)p.r(G)p.r(G)p.r(G)p.r(A)p.r(A)p.r(A)p.r(U)p.r(G)p.r(C)p.r(A)p.r(G)p.r(A)p.r(A)p.r(G)p.r(U)p.r(U)p.r(C)p.d(T)p.d(T)}|RNA2{r(G)p.r(A)p.r(A)p.r(C)p.r(U)p.r(U)p.r(C)p.r(U)p.r(G)p.r(C)p.r(A)p.r(U)p.r(U)p.r(U)p.r(C)p.r(C)p.r(C)p.r(U)p.r(C)p.d(A)p.d(G)}$$$RNA1{StrandType:ss}|RNA2{StrandType:as}$  97.5%
15. RNA1{r(G)p.r(A)p.r(G)p.r(U)p.r(G)p.r(C)p.r(C)p.r(A)p.r(G)p.r(A)p.r(U)p.r(G)p.r(U)p.r(U)p.r(G)p.r(C)p.r(A)p.r(G)p.r(A)p.d(T)p.d(T)}|RNA2{r(U)p.r(C)p.r(U)p.r(G)p.r(C)p.r(A)p.r(A)p.r(C)p.r(A)p.r(U)p.r(C)p.r(U)p.r(G)p.r(G)p.r(C)p.r(A)p.r(C)p.r(U)p.r(C)p.d(C)p.d(A)}$$$RNA1{StrandType:ss}|RNA2{StrandType:as}$  104%
16. RNA1{r(C)p.r(U)p.r(A)p.r(C)p.r(C)p.r(U)p.r(A)p.r(U)p.r(C)p.r(A)p.r(A)p.r(G)p.r(G)p.r(A)p.r(G)p.r(A)p.r(U)p.r(C)p.r(A)p.d(T)p.d(T)}|RNA2{r(U)p.r(G)p.r(A)p.r(U)p.r(C)p.r(U)p.r(C)p.r(C)p.r(U)p.r(U)p.r(G)p.r(A)p.r(U)p.r(A)p.r(G)p.r(G)p.r(U)p.r(A)p.r(G)p.d(G)p.d(G)}$$$RNA1{StrandType:ss}|RNA2{StrandType:as}$  114%
17. RNA1{r(C)p.r(U)p.r(A)p.r(U)p.r(C)p.r(A)p.r(A)p.r(G)p.r(G)p.r(A)p.r(G)p.r(A)p.r(U)p.r(C)p.r(A)p.r(U)p.r(U)p.r(C)p.r(A)p.d(T)p.d(T)}|RNA2{r(U)p.r(G)p.r(A)p.r(A)p.r(U)p.r(G)p.r(A)p.r(U)p.r(C)p.r(U)p.r(C)p.r(C)p.r(U)p.r(U)p.r(G)p.r(A)p.r(U)p.r(A)p.r(G)p.d(G)p.d(T)}$$$RNA1{StrandType:ss}|RNA2{StrandType:as}$  115%
18. RNA1{r(G)p.r(A)p.r(A)p.r(U)p.r(U)p.r(A)p.r(U)p.r(C)p.r(U)p.r(U)p.r(A)p.r(G)p.r(G)p.r(A)p.r(A)p.r(A)p.r(U)p.r(U)p.r(U)p.d(T)p.d(T)}|RNA2{r(A)p.r(A)p.r(A)p.r(U)p.r(U)p.r(U)p.r(C)p.r(C)p.r(U)p.r(A)p.r(A)p.r(G)p.r(A)p.r(U)p.r(A)p.r(A)p.r(U)p.r(U)p.r(C)p.d(T)p.d(G)}$$$RNA1{StrandType:ss}|RNA2{StrandType:as}$  116%
19. RNA1{r(G)p.r(A)p.r(U)p.r(G)p.r(U)p.r(U)p.r(G)p.r(C)p.r(A)p.r(G)p.r(A)p.r(A)p.r(U)p.r(U)p.r(C)p.r(U)p.r(C)p.r(A)p.r(C)p.d(T)p.d(T)}|RNA2{r(G)p.r(U)p.r(G)p.r(A)p.r(G)p.r(A)p.r(A)p.r(U)p.r(U)p.r(C)p.r(U)p.r(G)p.r(C)p.r(A)p.r(A)p.r(C)p.r(A)p.r(U)p.r(C)p.d(T)p.d(G)}$$$RNA1{StrandType:ss}|RNA2{StrandType:as}$  119%
20. RNA1{r(G)p.r(C)p.r(A)p.r(G)p.r(A)p.r(A)p.r(U)p.r(U)p.r(A)p.r(U)p.r(C)p.r(U)p.r(U)p.r(A)p.r(G)p.r(G)p.r(A)p.r(A)p.r(A)p.d(T)p.d(T)}|RNA2{r(U)p.r(U)p.r(U)p.r(C)p.r(C)p.r(U)p.r(A)p.r(A)p.r(G)p.r(A)p.r(U)p.r(A)p.r(A)p.r(U)p.r(U)p.r(C)p.r(U)p.r(G)p.r(C)p.d(G)p.d(C)}$$$RNA1{StrandType:ss}|RNA2{StrandType:as}$  132%
